Measurements published in ChEMBL document CHEMBL4819010, “Design, synthesis, and biological studies of novel 3-benzamidobenzoic acid derivatives as farnesoid X receptor partial agonist” (Eur J Med Chem, 2021).

biological target: T1, Bile acid receptor (Homo sapiens, UniProt Q96RI1); test: Agonist activity at FXR-LBD (unknown origin) assessed by ligand binding ability incubated for 3 hrs in absence of light measured by TR-FRET Coactivator assay
T1 sequence (Q96RI1 whole entry): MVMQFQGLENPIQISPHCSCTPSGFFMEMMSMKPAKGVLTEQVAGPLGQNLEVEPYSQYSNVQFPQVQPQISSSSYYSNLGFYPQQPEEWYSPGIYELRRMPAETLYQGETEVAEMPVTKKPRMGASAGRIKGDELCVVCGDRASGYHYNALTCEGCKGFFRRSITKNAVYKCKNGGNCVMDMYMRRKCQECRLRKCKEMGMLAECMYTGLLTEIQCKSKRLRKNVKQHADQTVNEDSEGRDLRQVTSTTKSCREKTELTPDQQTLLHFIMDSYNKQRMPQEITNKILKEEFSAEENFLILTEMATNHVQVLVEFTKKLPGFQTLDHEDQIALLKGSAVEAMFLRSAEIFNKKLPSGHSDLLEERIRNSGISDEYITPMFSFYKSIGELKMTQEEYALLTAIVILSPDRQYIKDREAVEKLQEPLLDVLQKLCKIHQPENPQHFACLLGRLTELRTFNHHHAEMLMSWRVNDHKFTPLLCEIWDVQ

For `O=C(O)c1cccc(NC(=O)c2ccc(OCc3ccccc3)cc2)c1`, which EC50 is on record?
Its EC50 is 0.135 µM.

Which EC50 does the source give for `Cc1ccc(NC(=O)c2ccc(Oc3ccccc3)cc2)cc1C(=O)O` here?
Its EC50 is 0.127 µM.

How did the EC50 turn out when `O=C(O)c1cccc(OCc2ccc(Oc3ccccc3)cc2)c1` was run?
Its EC50 is over 10 µM.

With `O=C(O)c1cccc(NC(=O)c2ccc(-c3ccccc3)cc2)c1` as the molecule, how does the EC50 read?
The EC50 was over 10 µM.

For `Cc1ccc(COc2cccc(C(=O)Nc3cccc(C(=O)O)c3)c2)cc1`, which EC50 is on record?
The EC50 was 1.42 µM.

With `Cc1ccccc1-c1cccc(COc2ccc(C(=O)Nc3cccc(C(=O)O)c3)cc2)c1` as the molecule, how does the EC50 read?
Its EC50 is 1.02 µM.

`COc1ccc(C(=O)Nc2cccc(C(=O)O)c2)cc1` was tested. Which EC50 did it give?
Its EC50 is 0.607 µM.

With `CCCCOc1ccc(C(=O)Nc2cccc(C(=O)O)c2)cc1` as the molecule, how does the EC50 read?
Its EC50 is 0.105 µM.

For `Cc1nc(-c2ccc(C(F)(F)F)cc2)sc1C(=O)Nc1cccc(C(=O)O)c1`, which EC50 is on record?
Its EC50 is 0.315 µM.

For `O=C(O)c1cccc(NC(=O)c2cccc(OCC3CC3)c2)c1`, which EC50 is on record?
The EC50 was 1.26 µM.

`Cc1cccc(COc2ccc(C(=O)Nc3cccc(C(=O)O)c3)cc2)c1` was tested. Which EC50 did it give?
The EC50 was 0.259 µM.

For `O=C(O)c1cccc(NC(=O)c2cccc(OCc3ccccc3)c2)c1`, which EC50 is on record?
Its EC50 is 1.16 µM.

For `Cc1cc(C(=O)Nc2cccc(C(=O)O)c2)nn1-c1ccccc1`, which EC50 is on record?
The EC50 was over 10 µM.

For `CCOc1cccc(C(=O)Nc2cccc(C(=O)O)c2)c1`, which EC50 is on record?
The EC50 was 2.35 µM.

How did the EC50 turn out when `CO/N=C(/COc1ccc(C(=O)Nc2cccc(C(=O)O)c2)cc1)c1ccccc1` was run?
Its EC50 is over 10 µM.

How did the EC50 turn out when `O=C(O)c1cccc(NC(=O)c2csc(-c3ccc(C(F)(F)F)cc3)n2)c1` was run?
The EC50 was 1.69 µM.

For `Cc1cccc(COc2cccc(C(=O)Nc3cccc(C(=O)O)c3)c2)c1`, which EC50 is on record?
The EC50 was 1.86 µM.

How did the EC50 turn out when `O=C(O)COc1cccc(NC(=O)c2ccc(Oc3ccccc3)cc2)c1` was run?
Its EC50 is over 10 µM.

With `COc1cccc(C(=O)Nc2cccc(C(=O)O)c2)c1` as the molecule, how does the EC50 read?
The EC50 was 1.03 µM.
